Laboratory results published in patent US12049583B2, “Compound, composition for anisotropic dye films including the compound, anisotropic dye film, and optical element” (Mitsubishi Chemical Corporation, priority 2020, dated 2024).

Key:
[1] = Solubility of the dye in toluene (concentration of toluene-saturated solution by HPLC); assay type: physicochemical
Experimental: To 101 mg of toluene, 3 mg of the dye (II-1) was added, and the resulting mixture was stirred at 80° C. for 5 minutes. The mixture was left to stand for 1 hour at room temperature. The resulting liquid mixture was filtered with a syringe equipped with a syringe filter (produced by Membrane Solutions Limited, PTFE13045, diameter: 0.45 μm). Hereby, a toluene-saturated solution of the dye (II-1) was prepared. The above solution was diluted with 767 mg of tetrahydrofuran, and the concentration of the solution was determined using HPLC (L-2300 Series produced by Hitachi High-Technologies Corporation). A 0.1-mass % tetrahydrofuran solution of the dye (II-1) was prepared, and a calibration curve was prepared at an absorption wavelength of 254 nm. Table 1 lists the results of measurement of the concentration of the toluene-saturated solution using the above calibration curve.

[2] = Solubility of the dye in cyclopentanone (concentration of cyclopentanone-saturated solution by HPLC); assay type: physicochemical
Experimental: To 103 mg of cyclopentanone, 3 mg of the dye (IV-1) was added, and the resulting mixture was stirred at 80° C. for 5 minutes. The mixture was left to stand for 1 hour at room temperature. The resulting liquid mixture was filtered with a syringe equipped with a syringe filter (produced by Membrane Solutions Limited, PTFE13045, diameter: 0.45 μm). Hereby, a cyclopentanone-saturated solution of the dye (IV-1) was prepared. The above solution was diluted with 746 mg of tetrahydrofuran, and the concentration of the solution was determined using HPLC (L-2300 Series produced by Hitachi High-Technologies Corporation). A 0.1-mass % tetrahydrofuran solution of the dye (IV-1) was prepared, and a calibration curve was prepared at an absorption wavelength of 254 nm. The concentration of the cyclopentanone-saturated solution was measured using the above calibration curve.

[3] = toluene-saturated solution, stirred at 80° C. 5 min, left 1 hour at room temperature, filtered, HPLC 254 nm
[4] = cyclopentanone-saturated solution, stirred at 80° C. 5 min, left 1 hour at room temperature, filtered, HPLC 254 nm

SMILES | Solubility of the dye in toluene [1, 3] [mass %] | Solubility of the dye in cyclopentanone [2, 4] [mass %] | other results
CCN(CC)c1ccc(/N=N/c2ccc(/N=N/c3nc4sc(CCC(C)CC(C)(C)C)cc4s3)cc2)cc1 (centres unmarked) [II-1] | 0.5 |  | 
CCN(CC)c1ccc(/N=N/c2ccc(/N=N/c3nc4sc(CCC(C)C)cc4s3)cc2)cc1 [II-2] | 0.7 |  | Solubility of the dye in toluene ([1]; measured as for dye (II-1), detection absorption wavelength 254 nm): 0.7%
CCN(CC)c1ccc(/N=N/c2nc3sc(/N=N/c4ccc(OCCC(C)CC(C)(C)C)cc4)cc3s2)cc1 (centres unmarked) [II-3] |  | 0.3 | Solubility of the dye in cyclopentanone ([2]; measured as for dye (IV-1), detection absorption wavelength 254 nm): 0.3%
CCCCSc1nnc(/N=N/c2ccc(/N=N/c3ccc(N(CC)CC)cc3)cc2)s1 [IV-2] |  | 2.2 | 
CCN(CC)c1ccc(/N=N/c2ccc(/N=N/c3sc(C)cc3C#N)cc2)cc1 [IV-3] |  | 2.7 | 
CCN(CC)c1ccc(/N=N/c2ccc(/N=N/c3cc(C)ns3)cc2)cc1 [IV-4] |  | 1.8 | 
